The assay has as its target T1, human β2 adrenergic receptor (Homo sapiens, UniProt P07550).
T1 construct: expressed in transfected cells; membranes prepared from the cells
Description: Radioligand binding assay on human β1 and β2 adrenergic receptors ([3H]dihydroalprenolol displacement). As to conditions: binding at β2 versus β1 adrenergic receptor; HEK-293 membranes. As for the experimental part: HEK-293 derived cell lines stably expressing cloned human β1 or β2 adrenergic receptors, respectively, were grown to near confluency in DMEM with 10% dialyzed FBS in the presence of 500 μg/mL Geneticin. The cell monolayer was lifted with Versene 1:5,000 (0.2 g/L EDTA in PBS) using a cell scraper. Cells were pelleted by centrifugation at 1,000 rpm, and cell pellets were either stored frozen at −80° C. or membranes were prepared immediately. […] Protein concentration of the membrane suspension was determined by the method of Bradford (Bradford M M., Analytical Biochemistry, 1976, 72, 248-54). […]
Binding assays were performed in 96-well microtiter plates in a total assay volume of 100 μL with 5 μg membrane protein for membranes containing the human β2 adrenergic receptor, or 2.5 μg membrane protein for membranes containing the human 01 adrenergic receptor in assay buffer (75 mM Tris/HCl pH 7.4 @ 25° C., 12.5 mM MgCl2, 1 mM EDTA, 0.2% BSA). […] Non-specific binding was determined in the presence of 10 μM unlabeled alprenolol. […] Filter plates were washed three times with filtration buffer (75 mM Tris/HCl pH 7.4 @4° C., 12.5 mM MgCl2, 1 mM EDTA) to remove unbound radioactivity. […] Binding data were analyzed by nonlinear regression analysis with the GraphPad Prism Software package (GraphPad Software, Inc., San Diego, Calif.) using the 3-parameter model for one-site competition. […]

T1 sequence (P07550 whole entry): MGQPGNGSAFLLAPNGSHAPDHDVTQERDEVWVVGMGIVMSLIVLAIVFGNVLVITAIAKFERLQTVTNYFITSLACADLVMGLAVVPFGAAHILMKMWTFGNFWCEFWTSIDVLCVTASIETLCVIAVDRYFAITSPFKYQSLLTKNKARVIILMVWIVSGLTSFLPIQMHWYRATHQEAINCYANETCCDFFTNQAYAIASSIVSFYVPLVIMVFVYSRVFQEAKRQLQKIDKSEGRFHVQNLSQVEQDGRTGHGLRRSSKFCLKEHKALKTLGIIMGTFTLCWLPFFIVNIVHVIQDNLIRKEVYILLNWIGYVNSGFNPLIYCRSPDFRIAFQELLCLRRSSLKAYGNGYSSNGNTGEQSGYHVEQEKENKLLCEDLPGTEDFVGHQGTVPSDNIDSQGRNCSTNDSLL

In the case of `COc1ccc(Oc2ccc(CCNC[C@H](O)c3ccc(O)c4[nH]c(=O)ccc34)cc2)cc1-c1ccccc1` [Example 1, 8-Hydroxy-5-((R)-1-hydroxy-2-{2-[4-(6-methoxybiphenyl-3-yloxy)phenyl]ethylamino}ethyl)-1H-quinolin-2-one], the “receptor subtype selectivity, ratio Ki(β1)/Ki(β2)” value is “about 18”.

Values taken from patent publication US7662815B2, “Diaryl ether β2 adrenergic receptor agonists” (Theravance, Inc., priority 2004, dated 2010).
